Measured values from ChEMBL document CHEMBL3627608, “Crystal structures of human RIP2 kinase catalytic domain complexed with ATP-competitive inhibitors: Foundations for understanding inhibitor selectivity” (Bioorg Med Chem, 2015).

What was measured:
[1] = target: Mitogen-activated protein kinase 11 (Homo sapiens) (UniProt Q15759); assay: Inhibition of P38beta (unknown origin) at 10 uM after 120 mins P33 radiolabeled kinase activity assay
[2] = target: Cyclin-dependent kinase 2/cyclin A (Homo sapiens) (UniProt P24941+P20248+P78396); assay: Inhibition of CDK2/cyclin A (unknown origin) at 10 uM after 120 mins P33 radiolabeled kinase activity assay; assay type: protein-complex assay
[3] = target: T1, Serine/threonine-protein kinase D1 (Homo sapiens) (UniProt Q15139); assay: Inhibition of PKCmu (unknown origin) at 10 uM after 120 mins P33 radiolabeled kinase activity assay
T1 sequence (whole entry): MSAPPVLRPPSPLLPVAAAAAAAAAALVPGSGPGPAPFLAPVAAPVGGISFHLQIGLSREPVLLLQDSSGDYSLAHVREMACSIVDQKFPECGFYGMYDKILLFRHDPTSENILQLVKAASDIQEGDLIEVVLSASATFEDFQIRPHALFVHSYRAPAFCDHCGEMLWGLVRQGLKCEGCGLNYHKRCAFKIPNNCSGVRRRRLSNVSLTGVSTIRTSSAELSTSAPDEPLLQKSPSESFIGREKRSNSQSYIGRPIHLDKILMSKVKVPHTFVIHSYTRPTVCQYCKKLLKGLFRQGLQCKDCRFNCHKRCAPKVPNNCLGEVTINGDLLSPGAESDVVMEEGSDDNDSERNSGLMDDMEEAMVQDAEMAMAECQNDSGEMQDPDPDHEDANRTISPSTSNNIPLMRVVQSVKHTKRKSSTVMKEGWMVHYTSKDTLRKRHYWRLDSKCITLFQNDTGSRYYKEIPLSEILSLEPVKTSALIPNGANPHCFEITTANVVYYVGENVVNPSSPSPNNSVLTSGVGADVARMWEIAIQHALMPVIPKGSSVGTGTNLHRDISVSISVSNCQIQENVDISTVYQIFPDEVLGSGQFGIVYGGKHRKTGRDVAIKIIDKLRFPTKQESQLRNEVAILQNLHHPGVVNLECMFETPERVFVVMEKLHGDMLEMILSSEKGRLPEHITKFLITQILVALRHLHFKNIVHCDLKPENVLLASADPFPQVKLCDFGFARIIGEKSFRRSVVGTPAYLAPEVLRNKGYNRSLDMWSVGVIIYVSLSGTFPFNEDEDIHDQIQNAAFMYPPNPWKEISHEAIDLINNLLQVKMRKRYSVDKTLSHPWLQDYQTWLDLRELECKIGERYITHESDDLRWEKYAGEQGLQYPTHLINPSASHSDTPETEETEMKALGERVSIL

[4] = target: T2, Ephrin type-A receptor 3 (Homo sapiens) (UniProt P29320); assay: Inhibition of EPHA3 (unknown origin) at 10 uM after 120 mins P33 radiolabeled kinase activity assay
T2 sequence (whole entry): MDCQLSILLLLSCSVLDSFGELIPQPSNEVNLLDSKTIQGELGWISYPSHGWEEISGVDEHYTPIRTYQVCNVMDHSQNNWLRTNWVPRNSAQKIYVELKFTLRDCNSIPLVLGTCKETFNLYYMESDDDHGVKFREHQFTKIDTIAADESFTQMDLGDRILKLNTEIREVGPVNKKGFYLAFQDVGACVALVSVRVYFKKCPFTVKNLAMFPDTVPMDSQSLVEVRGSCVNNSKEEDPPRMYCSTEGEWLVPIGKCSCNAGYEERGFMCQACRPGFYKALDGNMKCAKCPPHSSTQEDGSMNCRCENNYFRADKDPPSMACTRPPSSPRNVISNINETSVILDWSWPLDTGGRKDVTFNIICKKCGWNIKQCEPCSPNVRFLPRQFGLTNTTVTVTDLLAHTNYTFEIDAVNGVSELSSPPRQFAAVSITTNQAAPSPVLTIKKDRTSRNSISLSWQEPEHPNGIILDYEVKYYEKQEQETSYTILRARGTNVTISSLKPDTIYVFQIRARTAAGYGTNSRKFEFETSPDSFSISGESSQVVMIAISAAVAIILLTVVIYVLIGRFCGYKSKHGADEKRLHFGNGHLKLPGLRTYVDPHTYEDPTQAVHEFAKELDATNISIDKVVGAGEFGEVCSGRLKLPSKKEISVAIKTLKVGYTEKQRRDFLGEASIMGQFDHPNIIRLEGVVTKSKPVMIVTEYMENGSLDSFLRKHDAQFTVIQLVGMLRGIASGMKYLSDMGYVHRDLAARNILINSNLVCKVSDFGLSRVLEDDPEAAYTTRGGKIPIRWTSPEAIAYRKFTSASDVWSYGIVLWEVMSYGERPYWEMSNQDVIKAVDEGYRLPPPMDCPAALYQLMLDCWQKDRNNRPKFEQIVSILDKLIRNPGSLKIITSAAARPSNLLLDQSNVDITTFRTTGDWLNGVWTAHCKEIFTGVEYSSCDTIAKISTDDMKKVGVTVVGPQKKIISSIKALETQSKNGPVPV

[5] = target: Ribosomal protein S6 kinase beta-1 (Homo sapiens) (UniProt P23443); assay: Inhibition of RPS6KB1 (unknown origin) at 10 uM after 120 mins P33 radiolabeled kinase activity assay
Sequence of Ribosomal protein S6 kinase beta-1 (Homo sapiens) (P23443 whole entry, looked up): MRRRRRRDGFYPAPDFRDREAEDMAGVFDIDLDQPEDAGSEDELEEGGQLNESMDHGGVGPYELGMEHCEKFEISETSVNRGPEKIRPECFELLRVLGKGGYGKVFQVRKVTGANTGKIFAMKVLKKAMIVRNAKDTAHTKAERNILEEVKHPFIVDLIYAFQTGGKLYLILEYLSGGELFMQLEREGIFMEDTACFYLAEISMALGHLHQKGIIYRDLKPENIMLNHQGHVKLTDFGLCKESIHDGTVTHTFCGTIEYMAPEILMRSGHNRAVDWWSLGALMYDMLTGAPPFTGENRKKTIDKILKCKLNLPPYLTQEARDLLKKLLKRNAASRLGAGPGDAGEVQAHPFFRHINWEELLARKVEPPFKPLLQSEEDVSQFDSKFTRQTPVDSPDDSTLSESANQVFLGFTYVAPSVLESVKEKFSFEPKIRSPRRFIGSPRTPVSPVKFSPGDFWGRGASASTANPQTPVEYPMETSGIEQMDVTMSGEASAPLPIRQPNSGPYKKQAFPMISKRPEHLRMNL

[6] = target: T3, Serine/threonine-protein kinase Nek3 (Homo sapiens) (UniProt P51956); assay: Inhibition of NEK3 (unknown origin) at 10 uM after 120 mins P33 radiolabeled kinase activity assay
T3 sequence (whole entry): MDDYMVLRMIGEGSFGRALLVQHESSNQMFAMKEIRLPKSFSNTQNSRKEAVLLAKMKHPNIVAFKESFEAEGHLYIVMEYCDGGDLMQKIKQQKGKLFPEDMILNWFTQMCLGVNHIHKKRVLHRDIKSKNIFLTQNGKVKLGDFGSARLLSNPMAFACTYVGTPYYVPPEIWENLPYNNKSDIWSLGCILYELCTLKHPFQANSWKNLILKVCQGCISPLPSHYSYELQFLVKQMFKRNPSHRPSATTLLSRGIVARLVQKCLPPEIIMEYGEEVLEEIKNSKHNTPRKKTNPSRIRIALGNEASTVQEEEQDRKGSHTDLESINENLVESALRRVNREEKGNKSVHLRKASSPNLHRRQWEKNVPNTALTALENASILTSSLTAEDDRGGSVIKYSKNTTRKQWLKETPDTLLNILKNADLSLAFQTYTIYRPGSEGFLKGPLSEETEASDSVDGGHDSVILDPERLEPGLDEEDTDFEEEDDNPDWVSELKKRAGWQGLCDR

[7] = target: Ephrin type-A receptor 7 (Homo sapiens) (UniProt Q15375); assay: Inhibition of EPHA7 (unknown origin) at 10 uM after 120 mins P33 radiolabeled kinase activity assay
Sequence of Ephrin type-A receptor 7 (Homo sapiens) (Q15375 28-998 limits assumed): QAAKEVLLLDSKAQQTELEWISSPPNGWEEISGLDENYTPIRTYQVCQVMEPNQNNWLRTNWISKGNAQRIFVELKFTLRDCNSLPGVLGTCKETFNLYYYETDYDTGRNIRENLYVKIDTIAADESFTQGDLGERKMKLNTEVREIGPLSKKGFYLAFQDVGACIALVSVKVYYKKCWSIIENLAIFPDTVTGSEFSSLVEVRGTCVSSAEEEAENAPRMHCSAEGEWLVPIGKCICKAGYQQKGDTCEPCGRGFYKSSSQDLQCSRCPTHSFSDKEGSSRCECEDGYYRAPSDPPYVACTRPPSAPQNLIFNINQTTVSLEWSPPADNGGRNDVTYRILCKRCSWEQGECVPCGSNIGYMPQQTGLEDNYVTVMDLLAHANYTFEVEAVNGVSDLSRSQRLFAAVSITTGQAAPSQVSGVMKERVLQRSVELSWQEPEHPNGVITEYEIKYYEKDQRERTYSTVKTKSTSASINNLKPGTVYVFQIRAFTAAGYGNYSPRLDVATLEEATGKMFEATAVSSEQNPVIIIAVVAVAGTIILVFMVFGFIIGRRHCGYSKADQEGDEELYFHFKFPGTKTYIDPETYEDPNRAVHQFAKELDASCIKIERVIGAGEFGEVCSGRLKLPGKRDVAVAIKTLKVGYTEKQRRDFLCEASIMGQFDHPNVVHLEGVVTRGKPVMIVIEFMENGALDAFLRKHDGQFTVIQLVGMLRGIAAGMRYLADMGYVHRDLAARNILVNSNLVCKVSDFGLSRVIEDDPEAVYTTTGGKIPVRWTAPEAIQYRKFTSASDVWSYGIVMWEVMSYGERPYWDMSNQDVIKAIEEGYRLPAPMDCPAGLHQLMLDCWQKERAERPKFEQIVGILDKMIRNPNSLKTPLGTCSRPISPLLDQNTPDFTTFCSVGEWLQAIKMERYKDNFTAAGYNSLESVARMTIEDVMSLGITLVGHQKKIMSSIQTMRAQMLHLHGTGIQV

[8] = target: Dual specificity tyrosine-phosphorylation-regulated kinase 1A (Homo sapiens) (UniProt Q13627); assay: Inhibition of DYRK1 (unknown origin) at 10 uM after 120 mins P33 radiolabeled kinase activity assay

Sequence of Mitogen-activated protein kinase 11 (Homo sapiens) (Q15759 whole entry): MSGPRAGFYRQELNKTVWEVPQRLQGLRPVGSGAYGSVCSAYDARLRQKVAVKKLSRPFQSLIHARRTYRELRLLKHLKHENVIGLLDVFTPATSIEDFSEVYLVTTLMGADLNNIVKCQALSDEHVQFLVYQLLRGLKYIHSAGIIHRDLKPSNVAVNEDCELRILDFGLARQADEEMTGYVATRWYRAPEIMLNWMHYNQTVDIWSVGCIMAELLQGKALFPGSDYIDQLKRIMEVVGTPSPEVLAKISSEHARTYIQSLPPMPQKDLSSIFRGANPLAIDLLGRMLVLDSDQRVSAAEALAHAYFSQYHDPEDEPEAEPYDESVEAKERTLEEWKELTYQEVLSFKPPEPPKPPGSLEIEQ

COCCNC(=O)c1ccc2c(c1)nc(-c1cnc(-c3ccc(Cl)cc3)[nH]1)n2CCOC
inhibition [1]: 10%
inhibition [2]: -6.73%
inhibition [3]: 12.1%
inhibition [4]: 17.5%
inhibition [5]: 6.1%
inhibition [6]: 16.4%
inhibition [7]: 18.8%
inhibition [8]: 9.38%

CS(=O)(=O)c1cccc(Nc2nccc(-c3sc(N4CCOCC4)nc3-c3cccc(NS(=O)(=O)c4c(F)cccc4F)c3)n2)c1
inhibition [1]: -5.84%
inhibition [2]: 62.9%
inhibition [3]: 100%
inhibition [4]: 57.4%
inhibition [5]: 48.5%
inhibition [6]: 4.28%
inhibition [7]: 47.5%
inhibition [8]: 31.6%

CC(C)(C)c1cc(NC(=O)Nc2ccc(Oc3ccncc3)cc2)no1
inhibition [1]: 96.2%
inhibition [2]: 6.27%
inhibition [3]: 19.5%
inhibition [4]: 91.5%
inhibition [5]: 84.2%
inhibition [6]: 10.7%
inhibition [7]: 96.5%
inhibition [8]: 8.89%
